The results in this text go back to patent publication US8889591B2, “Herbicidal compositions comprising 4-amino-3-chloro-5-fluoro-6-(4-chloro-2-fluoro-3-methoxyphenyl)pyridine-2-carboxylic acid or a derivative thereof and bromobutide, daimuron, oxaziclomefone or pyributicarb” (Dow Agrosciences LLC, priority 2012, dated 2014).

The assay deals with FIMMI. The assay is described as follows: In-water applied greenhouse weed control, transplanted paddy rice system. It is filed as in vivo, Fimbristylis miliacea (L.) Vahl. Conditions: in-water application. The procedure:
Weed seeds or nutlets of the desired test plant species were planted in puddled soil (mud) prepared by mixing a shredded, non-sterilized mineral soil (50.5 percent silt, 25.5 percent clay, and 24 percent sand, with a pH of about 7.6 and an organic matter content of about 2.9 percent) and water at a 1:1 volumetric ratio. The prepared mud was dispensed in 365 mL aliquots into 16-ounce (oz.) non-perforated plastic pots with a surface area of 86.59 square centimeters (cm^2) leaving a headspace of 3 centimeters (cm) in each pot. Mud was allowed to dry overnight prior to planting or transplanting. Rice seeds were planted in Sun Gro MetroMix® 306 planting mixture, which typically has a pH of 6.0 to 6.8 and an organic matter content of about 30 percent, in plastic plug trays. Seedlings at the second or third leaf stage of growth were transplanted into 840 mL of mud contained in 32-oz. non-perforated plastic pots with a surface area of 86.59 cm^2 4 days prior to herbicide application. The paddy was created by filling the headspace of the pots with 2.5 to 3 cm of water. When required to ensure good germination and healthy plants, a fungicide treatment and/or other chemical or physical treatment was applied. The plants were grown for 4-22 days in a greenhouse with an approximate 14 h photoperiod which was maintained at about 29° C. during the day and 26° C. during the night. Nutrients were added as Osmocote® (19:6:12, N:P:K+ minor nutrients) at 2 g per 16-oz. pot and 4 g per 32-oz. pot. Water was added on a regular basis to maintain the paddy flood, and supplemental lighting was provided with overhead metal halide 1000-Watt lamps as necessary. The plants were employed for testing when they reached the first through fourth true leaf stage.
Treatments consisted of the acid or esters of 4-amino-3-chloro-5-fluoro-6-(4-chloro-2-fluoro-3-methoxy-phenyl)pyridine-2-carboxylic acid (compound A) each formulated as an SC and various herbicidal components alone and in combination. Forms of compound A were applied on an acid equivalent basis.
Other herbicidal components were applied on an active ingredient basis and included daimuron formulated as an EC, bromobutide (technical grade material), and oxaziclomefone (technical grade material).
Treatment requirements for each compound or herbicidal component were calculated based upon the rates being tested, the concentration of active ingredient or acid equivalent in the formulation, an application volume of 2 mL per component per pot, and an application area of 86.59 cm^2 per pot.
For formulated compounds, a measured amount was placed in an individual 100 or 200 mL glass vial and was dissolved in a volume of 1.25% (v/v) Agri-Dex® crop oil concentrate to obtain application solutions.
For technical grade compounds, a weighed amount was placed in an individual 100 to 200 mL glass vial and was dissolved in a volume of acetone to obtain concentrated stock solutions. […] The concentrated stock solutions obtained were diluted with an equivalent volume of an aqueous mixture containing 2.5% (v/v) crop oil concentrate so that the final application solutions contained 1.25% (v/v) crop oil concentrate.
Applications were made by injecting, with a pipetter, appropriate amounts of the application solutions, individually and sequentially, into the aqueous layer of the paddy. Control plants were treated in the same manner with the solvent blank. Applications were made so that all treated plant material received the same concentrations of acetone and crop oil concentrate.
The treated plants and control plants were placed in a greenhouse as described above and water was added as needed to maintain a paddy flood. After approximately 3 weeks the condition of the test plants as compared with that of the untreated plants was determined visually and scored on a scale of 0 to 100 percent where 0 corresponds to no injury or growth inhibition and 100 corresponds to complete kill. […]

Where [1] appears, read: Compound A Benzyl Ester 8 gae/ha alone.
Setting [2] is: Compound A Benzyl Ester 16 gae/ha alone.

For the compound `COc1c(Cl)ccc(-c2nc(C(=O)OCc3ccccc3)c(Cl)c(N)c2F)c1F` [Compound A Benzyl Ester], the “Visual Weed Control (%) - 19 DAA FIMMI Obs” value is, setting by setting: under setting [1], 0%; under setting [2], 0%. The “Visual Weed Control (%) - 21 DAA FIMMI Obs” value reads like this: under setting [1], 15%; under setting [2], 65%; (Compound A Benzyl Ester 32 gae/ha alone) 75%.
